Nine compounds from patent US20230382940A1, “ANTIVIRAL COMPOUNDS AND METHODS OF MAKING AND USING THE SAME” (Gilead Sciences, Inc., priority 2022, published 2023) can be followed below.

Holding throughout (assay type): cell-based
Test [1] has as its system Respiratory syncytial virus recombinant with luciferase (RSV-Luc5). As to the kind of experiment: NHBE RSV-Luc5 384-well assay (EC50 RSVFLUC NHBE-384 v2), Example W. The settings on record: human respiratory syncytial virus, 72 h, read-out: EC50 RSV FLUC NHBE 384 V2 (per Ex. W). The source says: Example W: NHBE RSV-Luc5 384-Well Assay (EC50 RSVFLUC NHBE-384 v2)
Normal Human Bronchial Epithelial (NHBE) cells were purchased from Lonza (Walkersville, MD Cat #CC2540) and maintained in BEGM Bronchial Epithelial Cell Growth Medium BulletKit (Lonza CC-3170).
Cells were thawed, expanded, and were used for experiments at passage 2. Respiratory syncytial virus recombinant with luciferase (RSV-Luc5) (≥1×10^7 Infectious Units/mL (IU/mL) determined by TCID50) was purchased from Microbiologics (Saint Cloud, MN). Viral replication was determined in NHBE cells in the following manner.
(§1) Compounds are prepared in 100% DMSO in 384-well polypropylene plates (Greiner, Monroe, NC, Cat #784201) with 8 compounds per plate in grouped replicates of 4 at 10 serially diluted concentrations (1:3). The serially diluted compounds were transferred to low dead volume Echo plates (Labcyte, Sunnyvale, CA, Cat #LP-0200).
The test compounds were spotted to 384-well assay plates (Greiner, Monroe, NC, Cat #781091) at 200 nL per well using an Echo acoustic dispenser (Labcyte, Sunnyvale, CA). NHBE cells were harvested and suspended in BEGM Bronchial Epithelial Cell Growth Medium BulletKit and seeded to the pre-spotted assay plates at 5,000 cells per well in 30 μL. RSV-Luc5 virus was diluted in BEGM Bronchial Epithelial Cell Growth Medium BulletKit at 500,000 Infectious Units (IU) per mL and 10 μL per well was added to the assay plates containing cells and compounds, for an MOI of 1. The assay plates were incubated for 3 days at 37° C. and 5% CO2. At the end of incubation, One-Glo reagent (Promega, Madison, WI, Cat #E6120) was prepared. The assay plates and One-Glo reagent were equilibrated to room temperature for at least 15 minutes. 40 μL per well of One-Glo reagent was added and the plates were incubated at room temperature for 15 minutes before reading the luminescence signal on an EnVision multimode plate reader (Perkin Elmer, Waltham, MA). Remdesivir was used as positive control and DMSO was used as negative control. Values were normalized to the positive and negative controls (as 0% and 100% replication, respectively) and data was fitted using non-linear regression analysis by Gilead's dose response tool. The EC50 value for each compound was defined as the concentration reducing the viral replication by 50%.

Test [2] has as its system Human Rhinovirus 1B (HRV1B). Put plainly: H1-HeLa HRV-CTG 384-well assay, HRV1B, Example X. The settings on record: Rhinovirus A, 96 h; H1-HeLa cells, HRV1B MOI 0.5, 4 days, Celltiter-Glo; read-out: EC50 H1-HeLa_HRV 1B_HRV-CTG 384-well Assay (per Ex. X). The source says:
(§2) Example X: H1-HeLa HRV-CTG 384-Well Assay
(§3) H1-Hela cell line (ATCC, Manassas, VA, Cat #CRL-1958) was maintained in Dulbecco's […] (DMEM) (Corning, New York, NY, Cat #15-018CM) supplemented with 10% fetal bovine serum (FBS) (Hyclone, Logan, UT, Cat #SH30071-03), and 1× Penicillin-Streptomycin-L-Glutamine (Corning, New York, NY, Cat #30-009-CI). Cells were passaged 2 times per week to maintain sub-confluent densities and were used for experiments at passage 5-30. The Human Rhinovirus 1B (HRV1B) (ATCC, Manassas, VA, Cat #VR-1645), Human Rhinovirus 14 (HRV14) (ATCC, Manassas, VA, Cat #VR-284), and Human Rhinovirus 16 (HRV16) (ATCC, Manassas, VA, Cat #BR-283) was obtained through ATCC. Viral infection was monitored by determining viability of H1-HeLa cells as described below.
(§4) Test molecules are prepared in 100% DMSO in 384-well polypropylene plates (Greiner, Monroe, NC, Cat #784201) with 8 compounds per plate in grouped replicates of 4 at 10 serially diluted concentrations (1:3). The serially diluted compounds were transferred to low dead volume Echo plates (Labcyte, Sunnyvale, CA, Cat #LP-0200).
(§5) The test compounds were spotted to 384-well assay plates (Greiner, Monroe, NC, Cat #781091) at 200 nL per well using an Echo acoustic dispenser (Labcyte, Sunnyvale, CA). H1-HeLa cells were harvested and suspended in DMEM (supplemented with 2% FBS and 1× Penicillin-Streptomycin-L-Glutamine) and seeded to the pre-spotted assay plates at 5,000 cells per well in 30 μL. HRV1B, HRV14, and HRV16 was diluted in DMEM (supplemented with 2% FBS and 1× Penicillin-Streptomycin-L-Glutamine) at 97.1 million Infectious Units (IU) per mL, 151 million IU per mL and 221 million IU per mL respectively. 10 μL of virus per well was added to the assay plates containing cells and compounds, for an MOI of 0.5, 1.0, and 0.25 respectively. The assay plates were incubated for 4 days at 37° C. and 5% CO2. At the end of incubation, Celltiter-Glo (Promega, Madison, WI, Cat #G7573) was prepared. The assay plates and Celltiter-Glo reagent were equilibrated to room temperature for at least 15 minutes. 40 μL per well of Celltiter-Glo reagent was added and the plates were incubated at room temperature for 15 minutes before reading the luminescence signal on an EnVision multimode plate reader (Perkin Elmer, Waltham, MA). Rupintrivir was used as positive control and DMSO was used as negative control. Values were normalized to the positive and negative controls (as 0% and 100% replication, respectively) and data was fitted using non-linear regression analysis by Gilead's dose response tool. The EC50 value for each compound was defined as the concentration reducing viral replication by 50%.

In test [3] the test system is Human Rhinovirus 14 (HRV14). Put plainly: H1-HeLa HRV-CTG 384-well assay, HRV14, Example X. As to conditions: Rhinovirus B, 96 h; H1-HeLa cells, HRV14 MOI 1.0, 4 days, Celltiter-Glo; read-out: EC50 H1-HeLa_HRV 14_HRV-CTG 384-well Assay (per Ex. X).
Description: as §2, §3, §4, §5
For orientation: Cellular ATP, detected with luciferase, serves as a proxy for viable cell number.

Test [4] concerns Human Rhinovirus 16 (HRV16). Put plainly: H1-HeLa HRV-CTG 384-well assay, HRV16, Example X. As to conditions: Rhinovirus A, 96 h; H1-HeLa cells, HRV16 MOI 0.25, 4 days, Celltiter-Glo; read-out: EC50 H1-HeLa_HRV 16_HRV-CTG 384-well Assay (per Ex. X).
Description: as §2, §3, §4, §5

Test [5] relates to Respiratory syncytial virus recombinant with luciferase (RSV-Luc5). As to the kind of experiment: HEp-2 RSV-Luc5 384-well assay (EC50 RSVFLUC Hep2-384 v2), Example V. As to conditions: human respiratory syncytial virus, HEp-2, 72 h, read-out: EC50 RSV FLuc Hep-2 384 V2 (per Ex. V).
Description: Example V: HEp-2 RSV-Luc5 384-Well Assay (EC50 RSVFLUC Hep2-384 v2)
HEp-2 cell line was purchased from ATCC (Manassas, VA Cat #CCL-23) and maintained in Dulbecco's […] (DMEM) (Corning, New York, NY, Cat #15-018CM) supplemented with 10% fetal bovine serum (FBS) (Hyclone, Logan, UT, Cat #SH30071-03) and 1× Penicillin-Streptomycin-L-Glutamine (Corning, New York, NY, Cat #30-009-C1). Cells were passaged 2 times per week to maintain sub-confluent densities and were used for experiments at passage 5-20. Respiratory syncytial virus recombinant with luciferase (RSV-Luc5) (≥1×107 TCID50/ml) was purchased from Microbiologics (Saint Cloud, MN). Viral replication was determined in HEp-2 cells in the following manner.
as §1
The test compounds were spotted to 384-well assay plates (Greiner, Monroe, NC, Cat #781091) at 200 nL per well. HEp-2 cells were harvested and suspended in DMEM (supplemented with 10% FBS and 1× Penicillin-Streptomycin-L-Glutamine) and seeded to the pre-spotted assay plates at 4,000 cells per well in 30 μL. RSV-Luc5 viruses were diluted in DMEM (supplemented with 10% FBS and 1× Penicillin-Streptomycin-L-(Glutamine) at 200,000 Infectious Units (IU) per mL and 10 μL per well was added to the assay plates containing cells and compounds, for an MOI=0.5. The assay plates were incubated for 3 days at 37° C. and 5% CO2. At the end of incubation, One-Glo reagent (Promega, Madison, WI, Cat #E6120) was prepared. The assay plates and One-Glo reagent were equilibrated to room temperature for at least 15 minutes. 40 μL per well of One-Glo reagent was added and the plates were incubated at room temp for 15 minutes before reading the luminescence signal on an EnVision multimode plate reader (Perkin Elmer, Waltham, MA). Remdesivir was used as positive control and DMSO was used as negative control. Values were normalized to the positive and negative controls (as 0% and 100% replication, respectively) and data was fitted using non-linear regression analysis by Gilead's dose response tool. The EC50 value for each compound was then determined as the concentration reducing the viral replication by 50%.

As to `CO[C@@H]1O[C@H]2[C@H](c3ccc4c(N)ncnn34)O[C@](C#N)(COC(=O)OCC(C)C)[C@H]2O1` (single isomer, unassigned) [Compound 25], the EC50 in test [1], in test [2], in test [3], in test [4] and in test [5] was 50 µM each time.

Consider `CO[C@H]1O[C@H]2[C@H](c3ccc4c(N)ncnn34)O[C@](C#N)(COC(=O)OCC(C)C)[C@H]2O1` (single isomer, unassigned) [Compound 26], for which the EC50 in test [1], in test [2], in test [3], in test [4] and in test [5] was 50 µM each time.

On to `CC1(OC(=O)OC[C@@]2(C#N)O[C@@H](c3ccc4c(N)ncnn34)[C@H](O)[C@@H]2O)CC1` [Compound 3, ((2R,3S,4R,5S)-5-(4-aminopyrrolo[2,1-f][1,2,4]triazin-7-yl)-2-cyano-3,4-dihydroxytetrahydrofuran-2-yl)methyl (1-methylcyclopropyl) carbonate], for which the concentration giving a half-maximal response (EC50) – broadly, the concentration that produces a half-maximal response – in test [1] is 7.93 µM; in test [2], 16 µM; in test [3], 24.4 µM; in test [4], 34.5 µM; in test [5], 20.9 µM.

In the case of `N#C[C@]1(COC(=O)OC2CCCCCCC2)O[C@@H](c2ccc3c(N)ncnn23)[C@H](O)[C@@H]1O` [Compound 18, ((2R,3S,4R,5S)-5-(4-aminopyrrolo[2,1-f][1,2,4]triazin-7-yl)-2-cyano-3,4-dihydroxytetrahydrofuran-2-yl)methyl cyclooctyl carbonate], in test [1], the 50% effective concentration (EC50) came out at 5.77 µM.

On to `CC(C)(OC(=O)OC[C@@]1(C#N)O[C@@H](c2ccc3c(N)ncnn23)[C@H](O)[C@@H]1O)C(F)F` [Compound 27, ((2R,3S,4R,5S)-5-(4-aminopyrrolo[2,1-f][1,2,4]triazin-7-yl)-2-cyano-3,4-dihydroxytetrahydrofuran-2-yl)methyl (1,1-difluoro-2-methylpropan-2-yl) carbonate], for which the EC50 in test [1] is 8.03 µM.

For `CC(C)OC(=O)Nc1ncnn2c([C@@H]3O[C@](C#N)(COC(=O)OC(C)C)[C@@H](OC(=O)OC(C)C)[C@H]3OC(=O)OC(C)C)ccc12` [Compound 42, Isopropyl (7-((2S,3S,4S,5R)-5-cyano-3,4-bis((isopropoxycarbonyl)oxy)-5-(((isopropoxycarbonyl)oxy)methyl)tetrahydrofuran-2-yl)pyrrolo[2,1-f][1,2,4]triazin-4-yl)carbamate], in test [1], the EC50 was 26.1 µM.

Regarding `CC(C)OC(=O)OC[C@@]1(C#N)O[C@@H](c2ccc3c(N)ncnn23)[C@H](OC(=O)OC(C)C)[C@@H]1OC(=O)OC(C)C` [Compound 43, (2R,3S,4S,5S)-5-(4-aminopyrrolo[2,1-f][1,2,4]triazin-7-yl)-2-cyano-2-(((isopropoxycarbonyl)oxy)methyl)tetrahydrofuran-3,4-diyl diisopropyl bis(carbonate)], the EC50 in test [1] is 6.99 µM.

For `COC(=O)Nc1ncnn2c([C@@H]3O[C@](C#N)(COC(=O)OC)[C@@H](OC(=O)OC)[C@H]3OC(=O)OC)ccc12` [Compound 44, Methyl (7-((2S,3S,4S,5R)-5-cyano-3,4-bis((methoxycarbonyl)oxy)-5-(((methoxycarbonyl)oxy)methyl)tetrahydrofuran-2-yl)pyrrolo[2,1-f][1,2,4]triazin-4-yl)carbamate], the half-maximal effective concentration (EC50) in test [1] is 15.8 µM.

As to `COC(=O)OC[C@@]1(C#N)O[C@@H](c2ccc3c(N)ncnn23)[C@H](OC(=O)OC)[C@@H]1OC(=O)OC` [Compound 45, (2R,3S,4S,5S)-5-(4-aminopyrrolo[2,1-f][1,2,4]triazin-7-yl)-2-cyano-2-(((methoxycarbonyl)oxy)methyl)tetrahydrofuran-3,4-diyl dimethyl bis(carbonate)], the EC50 in test [1] turned out to be 29.4 µM.
